Assay results reported in US20050058636A1, “Medicament against thrombotic diseases” (priority 2002, published 2005).

Key:
[1] = target: T1, platelet αIIbβ3-integrin with vitronectin (Homo sapiens, UniProt P04004); test: Binding of vitronectin to αIIbβ3-integrin; conditions: vitronectin 2 μg/ml, immobilized αIIbβ3-integrin 5 μg/ml, 10 μM ZnCl2 (FIG. 3)
T1 sequence (P04004 20-478): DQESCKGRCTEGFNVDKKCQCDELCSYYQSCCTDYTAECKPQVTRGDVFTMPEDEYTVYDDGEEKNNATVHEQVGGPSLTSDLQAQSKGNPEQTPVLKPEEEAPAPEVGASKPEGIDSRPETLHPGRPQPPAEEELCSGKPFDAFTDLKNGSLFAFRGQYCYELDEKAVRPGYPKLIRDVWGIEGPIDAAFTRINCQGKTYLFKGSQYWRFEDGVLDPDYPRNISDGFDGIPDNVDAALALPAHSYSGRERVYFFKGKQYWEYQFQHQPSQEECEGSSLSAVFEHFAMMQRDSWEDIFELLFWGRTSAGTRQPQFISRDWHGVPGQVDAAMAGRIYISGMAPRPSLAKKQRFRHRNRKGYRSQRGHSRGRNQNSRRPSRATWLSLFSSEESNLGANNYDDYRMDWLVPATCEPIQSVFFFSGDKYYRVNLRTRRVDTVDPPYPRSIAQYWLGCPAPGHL
Experimental: Microtiter plates were coated with 5 μg/ml αIIbβ3-integrin in Tris-buffered saline, pH 7.4, containing 1 mM CaCl2, 1 mM MgCl2 overnight at 4° C. and then blocked with 3% (w/v) bovine serum albumin. Binding of multimeric vitronectin (2 μg/ml) was performed in a final volume of 50 μl Tris-buffered saline containing 0.1% Tween-20, 0.3% (w/v) bovine serum albumin, 1 mM CaCl2 and 1 mM MgCl2 for 2 h at 22° C. in the absence or presence of 10 μM ZnCl2 and different kininogen forms. After the incubation period, monoclonal anti-vitronectin antibody VN7 at a concentration of 125 ng/ml was added, followed by addition of 1:1000 diluted peroxidase-conjugated goat anti-mouse immunoglobulins, respectively. Binding was quantitated as described above.
FIG. 3 The binding of vitronectin (2 μg/ml) to immobilized αIIbβ3-integrin (5 μg/ml) in the absence or presence of increasing concentrations of PAI-1 (filled squares), HKa (filled circles) or GST-domain 5 (open circles) in a buffer containing 10 μM ZnCl2 was carried out. Specific binding is presented as absorbance at 405 nm.

[2] = target: T2, binding of PAI-1 to vitronectin in PAI-1-depleted extracellular matrix of endothelial cells (Homo sapiens, UniProt P04004); test: Binding of PAI-1 to endothelial cell matrix; conditions: 2 μg/ml PAI-1; competitors each 500 nM; 10 μM ZnCl2 (FIG. 1)
T2 construct: The extracellular matrix of human umbilical vein endothelial cells was prepared according to standard procedures; endogenous in cells; host or cells: extracellular matrix of human umbilical vein endothelial cells, glycine-treated
T2 sequence (P04004 20-478): T1 sequence (P04004 20-478)
Experimental: The extracellular matrix of human umbilical vein endothelial cells was prepared according to standard procedures. PAI-1-depleted extracellular matrix was obtained by subsequent incubation with glycine (0.1 M, pH 2.3) for 2 h at 25° C. Wells were washed and blocked with phosphate buffered saline containing 3% (wt/vol) bovine serum albumin before proceeding with binding assays. Binding of PAI-1 (2 μg/ml) to the extracellular matrix was performed in a final volume of 50 μl Tris-buffered saline containing 0.1% Tween-20, 0.3% (wt/vol) bovine serum albumin for 2 h at 22° C. in the absence or presence of […] and different kininogen forms. Following the incubation period and a washing step, bound PAI-1 was quantitated by anti-human PAI-1 monoclonal antibody 12A4, followed by addition of 1:1000 diluted peroxidase-conjugated goat anti-mouse immunoglobulins. The conversion of the substrate 2,2,-azino-di(3-ethyl) benz-thiazoline sulphate was monitored at 405 nm in a Thermomax microtiter plate reader. […]
FIG. 1 The binding of 2 μg/ml PAI-1 to PAI-1-depleted (2 h glycine preincubation) extracellular matrix of cultured endothelial cells was tested in the absence (−)or presence of HK, HKa, GST-domain 5 (D5), the peptides HK483 and HK486 (each 500 nM) in a buffer containing 10 μM ZnCl2. Specific binding of PAI-1 is presented as absorbance at 405 nm.

PAI-1 = test: Urokinase-mediated clot lysis in the presence of PAI-1; assay type: biochemical; conditions: not shown
platelets = test: Platelet adhesion onto vitronectin-coated plates; assay type: cell-based; conditions: competitors each 250 nM (FIG. 4)
Experimental: Multiwell plates were coated with 5 μg/ml multimeric vitronectin (dissolved in bicarbonate buffer, pH 9.6) and blocked with 3% (wt/vol) bovine serum albumin for 16 h at 4° C. Platelets stained with calcein acetoxymethyl ester (calcein-AM, 2.5 μM) (15 min at 37° C. in the dark) at a density of 5×10^6 cells suspended in 50 μl HEPES-Tyrode buffer containing 4 mM MgCl2 were added together with the respective competitors and incubated for 30 min at 37° C. After three washes with phosphate buffered saline, bound platelets were lysed with 100 μl of lysis buffer (150 mM NaCl, 10 mM Tris-CH1, pH 7.5, 5 mM EDTA, 1% (wt/vol) NP-40, 1 mM phenyl-methylsulfonyl fluoride, 20 μg/ml soybean trypsin inhibitor) and quantified in a fluorescent plate reader (excitation filter 492 nm, emission filter 535 nm).
FIG. 4. The adhesion of platelets to vitronectin in the absence (−) or presence of HK, HKa, GST-domain 5(D5), or the peptides HK483 and HK486 (each 250 nM) was carried out. Cell adhesion is presented as % of control.

platelet-rich plasma = test: Aggregation of platelet-rich plasma; assay type: cell-based; conditions: Adenosin-diphosphate (5 μM)-induced; competitors each 1000 nM (FIG. 5)
Experimental: Platelet-rich plasma from fresh whole blood in sodium citrate was prepared by centrifugation of anticoagulated whole blood at 150 g for 20 min. After incubation of 0.45 ml of platelet rich plasma with different kininogen forms as indicated in the figure legends, and addition of 5 μl of […] at a final concentration of 5 μM, platelet aggregation was induced. Aggregation was quantitated by following the change in light transmission in a standardized aggregometer.
FIG. 5 Adenosin-diphosphate (5 μM)-induced aggregation of platelet-rich plasma was performed in the absence (−) or presence of GST-domain 5 (D5), or the peptides HK483 and HK486 (each 1000 nM). Platelet aggregation is presented as % of control.

## Gly-486-Lys-502 (GKHKNKGKKNGKHNGWK; UniProt P01042 504-520, looked up, fragment) [HK486, peptide derived from the carboxy-terminus of the domain 5 of HK]
[1]
  interaction of platelet αIIbβ3-integrin with vitronectin: block
[2]
  binding of PAI-1 to vitronectin in PAI-1-depleted (glycine-treated) extracellular matrix of endothelial cells: inhibited
PAI-1
  urokinase-mediated clot lysis, which is inhibited in the presence of PAI-1: enhance
platelets
  αIIbβ3-integrin-mediated platelet adhesion to vitronectin: block
platelet-rich plasma
  aggregation of platelet-rich plasma: inhibit
